Experimental data from article PMC3042041 (ACS chemical biology, 2010).

Biological target: T1, REV-ERBα (Homo sapiens, UniProt P20393)
T1 sequence (P20393 1-614): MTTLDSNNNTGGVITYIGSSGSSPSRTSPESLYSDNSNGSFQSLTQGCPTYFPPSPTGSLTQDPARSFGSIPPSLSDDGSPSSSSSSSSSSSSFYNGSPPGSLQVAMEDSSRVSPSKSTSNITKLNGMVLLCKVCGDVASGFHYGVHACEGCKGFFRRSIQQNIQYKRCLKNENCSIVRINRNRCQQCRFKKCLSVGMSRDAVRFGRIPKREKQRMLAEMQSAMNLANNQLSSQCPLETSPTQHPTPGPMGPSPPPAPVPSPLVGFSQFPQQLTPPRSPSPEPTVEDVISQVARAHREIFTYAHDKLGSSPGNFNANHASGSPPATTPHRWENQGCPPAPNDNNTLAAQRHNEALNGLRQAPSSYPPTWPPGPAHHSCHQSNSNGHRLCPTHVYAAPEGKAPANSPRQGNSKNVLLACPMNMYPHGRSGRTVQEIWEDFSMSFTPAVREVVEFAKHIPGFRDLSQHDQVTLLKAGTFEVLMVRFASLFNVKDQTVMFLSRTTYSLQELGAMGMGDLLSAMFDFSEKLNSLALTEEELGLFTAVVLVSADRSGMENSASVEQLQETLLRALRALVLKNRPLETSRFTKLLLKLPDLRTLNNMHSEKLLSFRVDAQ
Assay: Bmal1-luciferase / REV-ERBα cotransfection reporter assay in HEK293 cells
Assay type: cell-based

`CC(C)(C)OC(=O)CN(Cc1ccc(Cl)cc1)Cc1ccc([N+](=O)[O-])s1` [GSK4112] gave an IC50 of 2.3 µM.
